Reference: ChEMBL document CHEMBL1201862, “PubChem BioAssay data set” (2004)
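Values below derive from 48-hour exposures of cells grown in 96-well plates, with endpoints linearly interpolated between the two concentrations bracketing the appropriate inhibition level. Here, GI50 denotes the concentration required for 50% inhibition of growth.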 The source made the active and inactive calls. Rule as the data show it: active = GI50 up to about 1.1 µM and inactive = higher.

What was measured:
Experiment in all cases: NCI tumour cell line growth inhibition, 48 h
PC-3 = system: PC-3
UACC-62 = system: UACC-62
SW-620 = system: SW-620
MDA-MB-231 = system: MDA-MB-231
RXF 393 = system: RXF 393
HCT-116 = system: HCT-116
SF-539 = system: SF-539
K562 = system: K562
SNB-19 = system: SNB-19
HL-60 = system: HL-60
SN12C = system: SN12C
SR = system: SR
EKVX = system: EKVX
T47D = system: T47D
NCI/ADR-RES = system: NCI/ADR-RES
NCI-H460 = system: NCI-H460
SF-268 = system: SF-268
Malme-3M = system: Malme-3M
A549 = system: A549
M14 = system: M14

Row | Structure (SMILES) | GI50 (PC-3) | GI50 (UACC-62) | GI50 (SW-620) | GI50 (MDA-MB-231) | GI50 (RXF 393) | GI50 (HCT-116) | GI50 (SF-539) | GI50 (K562) | GI50 (SNB-19) | GI50 (HL-60) | GI50 (SN12C) | GI50 (SR) | GI50 (EKVX) | GI50 (T47D) | GI50 (NCI/ADR-RES) | GI50 (NCI-H460) | GI50 (SF-268) | GI50 (Malme-3M) | GI50 (A549) | GI50 (M14)
1 | O=[N+]([O-])c1ccccc1S(=O)(=O)c1ccccc1[N+](=O)[O-] | > 100 µM (inactive) | > 100 µM (inactive) | > 56.2 µM (inactive) | > 60.7 µM (inactive) | 39.5 µM (inactive) | > 100 µM (inactive) | 54.8 µM (inactive) | > 100 µM (inactive) | 56.8 µM (inactive) | > 100 µM (inactive) | > 100 µM (inactive) | > 100 µM (inactive) | > 56.2 µM (inactive) | > 100 µM (inactive) | > 100 µM (inactive) | > 100 µM (inactive) | 31.7 µM (inactive) | > 100 µM (inactive) | > 56.2 µM (inactive) | > 100 µM (inactive)
2 | CSc1nc(N)c(NC2OC(CO)C(O)C2O)c(=O)[nH]1 (stereo not given) | > 100 µM (inactive) | > 100 µM (inactive) | > 100 µM (inactive) | > 100 µM (inactive) | > 100 µM (inactive) | > 100 µM (inactive) | > 100 µM (inactive) | > 100 µM (inactive) | > 100 µM (inactive) | > 100 µM (inactive) | > 100 µM (inactive) | > 100 µM (inactive) | > 100 µM (inactive) | > 100 µM (inactive) | > 100 µM (inactive) | > 100 µM (inactive) | > 100 µM (inactive) | > 100 µM (inactive) | > 100 µM (inactive) | > 100 µM (inactive)
3 | CC1(C)C(C(=O)OC(C#N)c2cccc(OCC(=O)OCc3ccccc3)c2)C1(C)C (stereo not given) | > 100 µM (inactive) | > 100 µM (inactive) | 70.3 µM (inactive) | 66.1 µM (inactive) | > 100 µM (inactive) | 40.4 µM (inactive) | > 100 µM (inactive) | 2.36 µM (inactive) | > 100 µM (inactive) | 2.3 µM (inactive) | > 100 µM (inactive) | 0.251 µM (active) | > 100 µM (inactive) | 45.8 µM (inactive) | 81.5 µM (inactive) | > 100 µM (inactive) | > 100 µM (inactive) | > 100 µM (inactive) | > 100 µM (inactive) | 48.6 µM (inactive)
4 | CCCCCCNC(=S)N/N=C(\C)c1ccccn1 | < 0.01 µM (active) | 0.182 µM (active) | < 0.0322 µM (active) | 0.217 µM (active) | 0.0189 µM (active) | < 0.01 µM (active) | 1.84 µM (inactive) | < 0.01 µM (active) | 3.4 µM (inactive) | < 0.01 µM (active) | 1.41 µM (inactive) | < 0.01 µM (active) | 0.0176 µM (active) | < 0.01 µM (active) | < 0.01 µM (active) | 0.347 µM (active) | 0.604 µM (active) | 2.65 µM (inactive) | 0.12 µM (active) | 0.0337 µM (active)
5 | C[C@]12CC[C@H]3[C@@H](CCC4=C[C@@H](OC5OCC(OC6OC(CO)C(O)C(O)C6O)C(O)C5O)CC[C@@]43C=O)[C@@]1(O)CCC2C1=CC(=O)OC1 (stereo not given in full) | 0.631 µM (active) | 1.81 µM (inactive) | 0.746 µM (active) | 3.02 µM (inactive) | 0.23 µM (active) | 0.322 µM (active) | 0.391 µM (active) | 0.397 µM (active) | 3.11 µM (inactive) | 0.244 µM (active) | 0.364 µM (active) | 0.221 µM (active) | 0.441 µM (active) | 1.5 µM (inactive) | 0.469 µM (active) | 0.0982 µM (active) | 0.36 µM (active) | 0.59 µM (active) | 0.165 µM (active) | 1.21 µM (inactive)
6 | CC[C@H](C)[C@@H]([C@@H](CC(=O)N1CCC[C@H]1[C@H](OC)[C@@H](C)C(=O)NCCc1ccccc1)OC)N(C)C(=O)C(NC(=O)[C@H](C(C)C)N(C)C)C(C)C (stereo not given in full) | 0.000119 µM (active) | 0.000275 µM (active) | 0.000249 µM (active) | 0.000526 µM (active) | 0.000174 µM (active) | 0.000255 µM (active) | 0.000232 µM (active) | 6.68e-05 µM (active) | 0.000395 µM (active) | 7.02e-05 µM (active) | 0.000361 µM (active) | 2.57e-05 µM (active) | 0.000964 µM (active) | > 10 µM (inactive) | 0.00736 µM (active) | 0.000211 µM (active) | 0.000658 µM (active) | 0.001 µM (active) | 0.000248 µM (active) | 0.000203 µM (active)
7 | COC(=O)C1(Cc2ccccc2)Cc2ccc3c(c2C1=O)CCC3 (stereo not given) | 26.1 µM (inactive) | > 36.7 µM (inactive) | > 60.4 µM (inactive) | 33.4 µM (inactive) | 20.4 µM (inactive) | 30.5 µM (inactive) | > 48.9 µM (inactive) | 30.6 µM (inactive) | 55.2 µM (inactive) | 20.3 µM (inactive) | 44.4 µM (inactive) | 28.7 µM (inactive) | 13.1 µM (inactive) | 11.5 µM (inactive) | 23.7 µM (inactive) | 60.8 µM (inactive) | > 66.5 µM (inactive) | 14.2 µM (inactive) | 46.3 µM (inactive) | 25.1 µM (inactive)
8 | CCCCON1C[C@@H](O)C(O)[C@@H](O)C1 (stereo not given in full) | > 100 µM (inactive) | > 100 µM (inactive) | > 100 µM (inactive) | > 100 µM (inactive) | > 100 µM (inactive) | > 100 µM (inactive) | > 100 µM (inactive) | > 100 µM (inactive) | > 100 µM (inactive) | > 100 µM (inactive) | > 100 µM (inactive) | > 100 µM (inactive) | > 100 µM (inactive) | > 100 µM (inactive) | > 100 µM (inactive) | > 100 µM (inactive) | > 100 µM (inactive) | > 100 µM (inactive) | > 100 µM (inactive) | > 100 µM (inactive)
9 | O=C(O)Cn1ccnc1[N+](=O)[O-] | > 100 µM (inactive) | > 100 µM (inactive) | > 100 µM (inactive) | > 100 µM (inactive) | > 100 µM (inactive) | > 100 µM (inactive) | > 100 µM (inactive) | > 100 µM (inactive) | > 100 µM (inactive) | > 100 µM (inactive) | > 100 µM (inactive) | > 100 µM (inactive) | > 100 µM (inactive) | > 100 µM (inactive) | > 100 µM (inactive) | > 100 µM (inactive) | > 100 µM (inactive) | > 100 µM (inactive) | > 100 µM (inactive) | > 100 µM (inactive)
10 | CC1=C(C(=O)OC(C)C)C(c2ccccc2[N+](=O)[O-])C(C(=O)OC(CO[N+](=O)[O-])CO[N+](=O)[O-])=C(C)N1 (stereo not given) | 2.14 µM (inactive) | 2.07 µM (inactive) | 4.03 µM (inactive) | 5.68 µM (inactive) | 2.7 µM (inactive) | 2.55 µM (inactive) | 3.18 µM (inactive) | 2.81 µM (inactive) | 3.44 µM (inactive) | 6.25 µM (inactive) | 3.8 µM (inactive) | 18.6 µM (inactive) | 2.85 µM (inactive) | 4.99 µM (inactive) | 3.27 µM (inactive) | 3.1 µM (inactive) | 2.51 µM (inactive) | 3.91 µM (inactive) | 3.09 µM (inactive) | 3.74 µM (inactive)
11 | C[C@H](CCC(=O)O)[C@H]1CC[C@H]2[C@@H]3[C@H](O)C[C@@H]4C[C@H](O)CC[C@]4(C)[C@H]3C[C@H](O)[C@]12C | > 100 µM (inactive) | > 100 µM (inactive) | > 100 µM (inactive) | > 100 µM (inactive) | > 100 µM (inactive) | > 100 µM (inactive) | > 100 µM (inactive) | > 100 µM (inactive) | > 100 µM (inactive) | > 100 µM (inactive) | > 100 µM (inactive) | > 100 µM (inactive) | > 100 µM (inactive) | > 100 µM (inactive) | > 100 µM (inactive) | > 100 µM (inactive) | > 100 µM (inactive) | > 100 µM (inactive) | > 100 µM (inactive) | > 100 µM (inactive)
12 | O=C(Sc1c(-c2ccccc2)c(=O)n(-c2ccccc2)c(=S)n1-c1ccccc1)c1ccco1 | > 100 µM (inactive) | > 76.4 µM (inactive) | > 57.5 µM (inactive) | > 100 µM (inactive) | > 100 µM (inactive) | > 100 µM (inactive) | > 100 µM (inactive) | 34 µM (inactive) | > 100 µM (inactive) | 21.5 µM (inactive) | > 100 µM (inactive) | 29.2 µM (inactive) | > 100 µM (inactive) | > 100 µM (inactive) | > 100 µM (inactive) | > 100 µM (inactive) | > 100 µM (inactive) | > 69.5 µM (inactive) | > 100 µM (inactive) | > 100 µM (inactive)
13 | CCOC(CNCCC(=O)OC)OCC | > 10 µM (inactive) | > 10 µM (inactive) | > 10 µM (inactive) | > 10 µM (inactive) | > 10 µM (inactive) | > 10 µM (inactive) | > 10 µM (inactive) | > 10 µM (inactive) | > 10 µM (inactive) | > 10 µM (inactive) | > 10 µM (inactive) | > 10 µM (inactive) | > 10 µM (inactive) | > 10 µM (inactive) | > 10 µM (inactive) | > 10 µM (inactive) | > 10 µM (inactive) | > 10 µM (inactive) | > 10 µM (inactive) | > 10 µM (inactive)
